Literature values in patent US6756428B2, “Degradable plastics possessing a microbe-inhibiting quality” (Seefar Technologies, Incorporated, priority 1999, dated 2004).
≈ marks a conversion by molar mass, not a printed value. Like-named read-outs stand apart in the source and are kept apart here.

Experiments:
[1] = test system: Pseudomonas aeruginosa bacteria; conditions: bacterium P aeruginosa
[2] = test system: dogs
[3] = test system: fungus Aspergillus niger
[4] = test system: Staphylococcus aureus bacteria

Row | solubility in acetone (acetone, 25° C.) [mg/mL] | solubility in ethanol (25° C.) [mg/mL] | solubility in water (25° C.) [mg/mL] | MIC ([3]; against the fungus Aspergillus niger) | MIC ([4]; against Staphylococcus aureus bacteria) | Compound | solubility in dilute alkali solution (dilute alkali solution) | solubility in ethanol | solubility in water | MIC [1] | LD50 oral toxicity [2] [mg/kg] | MIC ([3]; against A. niger) | MIC ([4]; against S. aureus)
1 |  |  |  |  |  | Oc1cc(Cl)ccc1Oc1ccc(Cl)cc1Cl [triclosan, 2,4,4″-trichloro-2-hydroxydiphenylether] | sparingly soluble | soluble | insoluble | about 100 ppm | > 5000 | about 100 ppm | about 0.01 ppm
2 | 350 (≈ 829 mM) | 20 (≈ 47.4 mM) | 0.0001 (≈ 0.000237 mM) | about 5 mg/L | about 50 mg/L | Cc1ccc(S(=O)(=O)C(I)I)cc1 [DIMTS, diiodomethyl-p-tolylsulphone] |  |  |  |  |  |  | 
